What follows are molecules tested on AGS cells (KRAS^G12D) (assay: Detection of cell proliferation in vitro by MTT/MTS method (cell activity experiment)). Conditions: AGS cells; MTT/MTS; 3 days of drug treatment; read-out: AGS IC50.
Format: cell-based
Method in brief: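 KRAS G12D AGS cells seeded at 1000 per well, compound added 24 h later, 0.5% final DMSO. Viability read after 3 days of treatment by MTT (solubilised in DMSO) or MTS, 4 h, absorbance 490 nm. IC50 from dose–response curves versus DMSO control.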

Compared with `CCC1CCc2cc(O)cc(-c3ccc4c(N5C[C@H]6CC[C@@H](C5)N6)nc(OC[C@@]56CCCN5C[C@H](F)C6)nc4c3F)c21` (single isomer, unassigned) [Example 285], `CCC1CCCc2cc(O)cc(-c3ccc4c(N5C[C@H]6CC[C@@H](C5)N6)nc(OC[C@@]56CCCN5C[C@H](F)C6)nc4c3F)c21` (single isomer, unassigned) [Example 290] is 490-fold higher in IC50: 7 nM for the first, 3410 nM for the second.

With `C#Cc1cccc2cc(O)cc(-c3ccc4c(N5C[C@H]6CC[C@@H](C5)[C@@H]6F)nc(OC[C@@]56CCCN5C[C@H](F)C6)nc4c3F)c12` [Example 125, 5-ethynyl-4-(8-fluoro-4-((1R,5S,8R)-8-fluoro-3-azabicyclo [3.2.1]octan-3-yl)-2-(((2R,7aS)-2-fluorotetrahydro-1H-pyrrolizin-7a(5H)-yl)methoxy)quinazolin-7-yl)naphthalen-2-ol] the IC50 was greater than 2500 nM.

Same assay, conditions: Homo sapiens, AGS, 72 h, AGS cells; MTT/MTS; 3 days of drug treatment; read-out: AGS IC50

First: CCc1c(F)ccc2cc(O)cc(N3CCc4c(nc(OC[C@]56CCCN5[C@@H](COC(=O)N(C)C)CC6)nc4N4C[C@H]5CC[C@@H](C4)N5)C3)c12 [Example 210, ((3R,7aR)-7a-(((4-((1R,5S)-3,8-diazabicyclo[3.2.1]octan-3-yl)-7-(8-ethyl-7-fluoro-3-hydroxynaphthalen-1-yl)-5,6,7,8-tetrahydropyrido[3,4-d]pyrimidin-2-yl)oxy)methyl)hexahydro-1H-pyrrolizin-3-yl)methyl dimethylcarbamate]
Second: C#Cc1c(F)ccc2cc(O)cc(N3CCc4c(nc(OC[C@@]56CCCN5C[C@H](F)C6)nc4N4C[C@H]5CC[C@@H](C4)N5)C3)c12 [Example 202, 4-(4-((1R,5S)-3,8-diazabicyclo[3.2.1]octan-3-yl)-2-(((2R,7aS)-2-fluorotetrahydro-1H-pyrrolizin-7a(5H)-yl)methoxy)-5,8-dihydropyrido[3,4-d]pyrimidin-7(6H)-yl)-5-ethynyl-6-fluoronaphthalen-2-ol]
The IC50 of the first is 8.7-fold higher: 65 nM for the first, 7.5 nM for the second. The second is the more potent here.

Going from `Oc1cc2c(c(-c3ncc4c(N5C[C@H]6CC[C@@H](C5)N6)nc(OC[C@@]56CCCN5C[C@H](F)C6)nc4c3F)c1)C(CCF)CC2` (stereo partly drawn) [Example 259, 7-(4-((1R,5S)-3,8-diazabicyclo[3.2.1]octan-3-yl)-8-fluoro-2-(((2R,7aS)-2-fluorotetrahydro-1H-pyrrolizin-7a(5H)-yl)methoxy)pyrido[4,3-d]pyrimidin-7-yl)-1-(2-fluoroethyl)-2,3-dihydro-1H-inden-5-ol] to `CC1OCCc2cc(O)cc(-c3ncc4c(N5C[C@H]6CC[C@@H](C5)N6)nc(OC[C@@]56CCCN5C[C@H](F)C6)nc4c3F)c21` (stereo partly drawn) [Example 356, 8-(4-((1R,5S)-3,8-diazabicyclo[3.2.1]octan-3-yl)-8-fluoro-2-(((2R,7aS)-2-fluorotetrahydro-1H-pyrrolizin-7a(5H)-yl)methoxy)pyrido[4,3-d]pyrimidin-7-yl)-1-methylisochroman-6-ol], the IC50 falls from 2630 nM to 21 nM (130-fold). The second is the more potent here.

`Oc1cc(-c2ncc3c(N4CC5CCC(C4)C5F)nc(OC[C@@]45CCCN4C[C@H](F)C5)nc3c2F)c2c(F)c(F)ccc2c1` (stereo partly drawn) [Example 37, 5,6-difluoro-4-(8-fluoro-4-((1R,5S,8R)-8-fluoro-3-azabicyclo[3.2.1]octan-3-yl)-2-(((2R,7aS)-2-fluorotetrahydro-1H-pyrrolizin-7a(5H)-yl)methoxy)pyrido[4,3-d]pyrimidin-7-yl) naphthalen-2-ol] and `C#Cc1c(F)ccc2cc(O)cc(-c3ncc4c(N5CC6CCC(C5)C6F)nc(OC[C@@]56CCCN5C[C@H](F)C6)nc4c3F)c12` (stereo partly drawn) [Example 34, 5-ethynyl-6-fluoro-4-(8-fluoro-4-((1R,5S, 8R)-8-fluoro-3-azabicyclo [3.2.1]octan-3-yl)-2-(((2R,7aS)-2-fluorotetrahydro-1H-pyrrolizin-7a(5H)-yl)methoxy)pyrido[4,3-d]pyrimidin-7-yl) naphthalen-2-ol] cannot be ordered by IC50: greater than 2500 nM for the first, greater than 2500 nM for the second.

First: CCc1nccc2cc(O)cc(-c3ncc4c(N5C[C@H]6CC[C@@H](C5)N6)nc(OC[C@@]56CCCN5C[C@H](F)C6)nc4c3F)c12 [Example 340, 8-(4-((1R,5S)-3,8-diazabicyclo[3.2.1]octan-3-yl)-8-fluoro-2-(((2R,7aS)-2-fluorotetrahydro-1H-pyrrolizin-7a(5H)-yl)methoxy)pyrido[4,3-d]pyrimidin-7-yl)-1-ethylisoquinolin-6-ol]
Second: O=C1CCc2cc(O)cc(-c3ncc4c(N5C[C@H]6CC[C@@H](C5)N6)nc(OC[C@@]56CCCN5C[C@H](F)C6)nc4c3F)c21 [Example 250, 7-(4-((1R,5S)-3,8-diazabicyclo[3.2.1]octan-3-yl)-8-fluoro-2-(((2R,7aS)-2-fluorotetrahydro-1H-pyrrolizin-7a(5H)-yl)methoxy)pyrido[4,3-d]pyrimidin-7-yl)-5-hydroxy-2,3-dihydro-1H-inden-1-one]
The IC50 of the first is lower: 20 nM for the first, greater than 2500 nM for the second. The first is the more potent here.

First: CCC1CCc2cc(O)cc(-c3cc4nc(OC[C@@]56CCCN5C[C@H](F)C6)nc(N5C[C@H]6CC[C@@H](C5)N6)c4c4occc34)c21 (stereo partly drawn) [Example 386, 7-(9-((1R,5S)-3,8-diazabicyclo[3.2.1]octan-3-yl)-7-(((2R,7aS)-2-fluorotetrahydro-1H-pyrrolizin-7a(5H)-yl)methoxy)furo[2,3-f]quinazolin-4-yl)-1-ethyl-2,3-dihydro-1H-inden-5-ol]
Second: Oc1cc2c(c(-c3ccc4c(N5C[C@H]6CC[C@@H](C5)N6)nc(OC[C@@]56CCCN5C[C@H](F)C6)nc4c3F)c1)C1CC1C2 (stereo partly drawn) [Example 156, 2-(4-((1R,5S)-3,8-diazabicyclo[3.2.1]octan-3-yl)-8-fluoro-2-(((2R,7aS)-2-fluorotetrahydro-1H-pyrrolizin-7a(5H)-yl)methoxy)quinazolin-7-yl)-1,1a,6,6a-tetrahydrocyclopropa [a]inden-4-ol]
The IC50 of the first is 13-fold higher: 508 nM for the first, 40 nM for the second. The second is the more potent here.

`CCc1c(F)ccc2cc(O)cc(-c3ccc4c(N5C[C@H]6CC[C@@H](C5)S6(=O)=O)nc(OC[C@@]56CCCN5C[C@H](F)C6)nc4c3F)c12` [Example 163, (1R,5S)-3-(7-(8-ethyl-7-fluoro-3-hydroxynaphthalen-1-yl)-8-fluoro-2-(((2R,7aS)-2-fluorotetrahydro-1H-pyrrolizin-7a(5H)-yl)methoxy)quinazolin-4-yl)-8-thia-3-azabicyclo[3.2.1]octane 8,8-dioxide] and `CCc1c(F)ccc2cc(O)cc(-c3ncc4c(N5CC6CCC(C5)C6F)nc(OC[C@@]56CCCN5C[C@H](F)C6)nc4c3F)c12` (stereo partly drawn) [Example 35, 5-ethyl-6-fluoro-4-(8-fluoro-4-((1R,5S,8R)-8-fluoro-3-azabicyclo [3.2.1]octan-3-yl)-2-(((2R,7aS)-- fluorotetrahydro-1H-pyrrolizin-7a(5H)-yl)methoxy)pyrido[4,3-d]pyrimidin-7-yl) naphthalen-2-ol] cannot be ordered by IC50: greater than 2500 nM for the first, greater than 2500 nM for the second.

Going from `CCc1c(F)ccc2cc(O)cc(-c3ncc4c(C5C[C@H]6CC[C@@H](C5)N6)nc(OC[C@@]56CCCN5C[C@H](F)C6)nc4c3F)c12` (stereo partly drawn) [Example 80, 4-(4-((1R,5S)-8-azabicyclo[3.2.1]octan-3-yl)-8-fluoro-2-(((2R,7aS)-2-fluorotetrahydro-1H-pyrrolizin-7a(5H)-yl)methoxy)pyrido[4,3-d]pyrimidin-7-yl)-5-ethyl-6-fluoronaphthalen-2-ol] to `Oc1cc(-c2ncc3c(N4C[C@H]5CC[C@@H](C4)S5)nc(OC[C@@]45CCCN4C[C@H](F)C5)nc3c2F)c2c(F)cccc2c1` [Example 26, 4-(4-((1R,5S)-8-thia-3-azabicyclo[3.2.1]octan-3-yl)-8-fluoro-2-(((2R, 7aS)-2-fluorotetrahydro-1H-pyrrolizin-7a(5H)-yl)methoxy)pyrido[4,3-d]pyrimidin-7-yl)-5-fluoronaphthalen-2-ol], the IC50 falls from greater than 2500 nM to 300 nM.

Going from `CCc1c(F)ccc2cc(O)cc(-c3ccc4c(N5C[C@H]6CC[C@@H](C5)N6)nc(OCC5(CN6CCCC6)CC5)nc4c3F)c12` [Example 100, 4-(4-((1R,5S)-3,8-diazabicyclo[3.2.1]octan-3-yl)-8-fluoro-2-((1-(pyrrolidin-1-ylmethyl)cyclopropyl)methoxy)quinazolin-7-yl)-5-ethyl-6-fluoronaphthalen-2-ol] to `Cc1cc(N)nc(-c2ccc3c(N4C[C@H]5CC[C@@H](C4)N5)nc(OC[C@@]45CCCN4C[C@H](F)C5)nc3c2F)c1C1CC1` [Example 139, 6-(4-((1R,5S)-3,8-diazabicyclo[3.2.1]octan-3-yl)-8-fluoro-2-(((2R,7aS)-2-fluorotetrahydro-1H-pyrrolizin-7a(5H)-yl)methoxy)quinazolin-7-yl)-5-cyclopropyl-4-methylpyridin-2-amine], the IC50 rises from 21 nM to greater than 2500 nM.

Going from `CCc1cccc2cc(O)cc(-c3ccc4c(N5C[C@H]6CC[C@@H](C5)N6)c(C#N)c(OC[C@@]56CCCN5C[C@H](F)C6)nc4c3)c12` [Example 174, 4-((1R,5S)-3,8-diazabicyclo[3.2.1]octan-3-yl)-7-(8-ethyl-3-hydroxynaphthalen-1-yl)-2-(((2R,7aS)-2-fluorotetrahydro-1H-pyrrolizin-7a(5H)-yl)methoxy)quinoline-3-carbonitrile] to `C#Cc1c(F)ccc2cc(O)cc(-c3ncc4c(N5C[C@H]6CC[C@@H](C5)N6)c(C(F)(F)F)c(OC[C@@]56CCCN5C[C@H](F)C6)nc4c3F)c12` [Example 196, 4-(4-((1R,5S)-3,8-diazabicyclo[3.2.1]octan-3-yl)-8-fluoro-2-(((2R,7aS)-2-fluorotetrahydro-1H-pyrrolizin-7a(5H)-yl)methoxy)-3-(trifluoromethyl)-1,6-naphthyridin-7-yl)-5-ethynyl-6-fluoronaphthalen-2-ol], the IC50 rises from 1460 nM to greater than 2500 nM. The first is the more potent here.

With `Oc1cc2c(c(-c3ncc4c(N5C[C@H]6CC[C@@H](C5)N6)nc(OC[C@@]56CCCN5C[C@H](F)C6)nc4c3F)c1)C(C(F)(F)F)CCC2` (stereo partly drawn) [Example 260, 4-(4-((1R,5S)-3,8-diazabicyclo[3.2.1]octan-3-yl)-8-fluoro-2-(((2R,7aS)-2-fluorotetrahydro-1H-pyrrolizin-7a(5H)-yl)methoxy)pyrido[4,3-d]pyrimidin-7-yl)-5-(trifluoromethyl)-5,6,7,8-tetrahydronaphthalen-2-ol] the IC50 was 417 nM.
